Like-named read-outs stand apart in the source and are kept apart here.
Legend:
seizures [1] = settings: several rodent models of epilepsy; cited from earlier work
patient with diabetes = assay: Case Study C: topiramate added to Glucophage, DiaBeta and Rezulin in a diabetes patient; type: in vivo, human
Method: The ability of the compounds of formula I administered in combination with an anti-diabetic agent to treat Type II diabetes mellitus and Syndrome X is based on the following case studies. The patient was a person with an 8 year history of diabetes. Prior to treatment, patient's weight was 201 lbs, Hgb A1C was 9.3% and blood sugar was 309 mg/dl. Patient was taking Glucophage (metformin hydrochloride) at four 500 mg tablets/day (2 tablets in the morning, 1 tablet in the afternoon and 1 tablett at night, for a total of 2000 mg/day), DiaBeta (glyburide) at 10 mg twice a day (total of 20 mg/day) and Rezulin (troglitazone) at 200 mg/day. Patient was started on topiramate at 75 mg b.i.d (150 mg/day). […] After 15 months patient's weight was 190 lbs with blood sugars controlled on 100 mg topiramate in the morning, 200 mg topiramate at night (Total of 300 mg/day), DiaBeta at 10 mg twice a day and Rezulin at 200 mg once a day.

seizures [2] = settings: animal model of kindled epilepsy; cited from earlier work
[3] = tested on: patient with Type II diabetes; assay: Case Study A: topiramate added to insulin (70/30) in a Type II diabetes patient; type: in vivo, human
Method: The ability of the compounds of formula I administered in combination with an anti-diabetic agent to treat Type II diabetes mellitus and Syndrome X is based on the following case studies. The patient was a person with a 6 year history of Type II diabetes. For the past four years the patient was being treated with insulin (70/30). At the start of treatment patient's weight was 236 lbs, measured cholesterol was 316 mg/dl and measured glucose was 166 mg/dl. The patient was started on Topiramate for treatment of seizures and titrated to 75 mg a day. […] After 16 months, patient's fasting glucose was 89 mg/dl.

[4] = tested on: markers of diabetes mellitus; assay: Summary of the case studies: topiramate in combination with an anti-diabetic agent; type: in vivo, human; settings: oral administration in combination with an anti-diabetic agent
[5] = tested on: patient with Type II diabetes; assay: Case Study B: topiramate added to Glucotrol (glipizide) in a Type II diabetes patient; type: in vivo, human
Method: The ability of the compounds of formula I administered in combination with an anti-diabetic agent to treat Type II diabetes mellitus and Syndrome X is based on the following case studies. The patient was a person with a 5 year history of Type II diabetes. At the start of treatment, patient was taking 40 mg/day Glucotrol (glipizide, a sulfonylurea) and weighed 293 lbs. The patient was titrated on topiramate to 50 mg/day. After 1 month of treatment, patient reported that home measured blood sugars had dropped from a baseline of 300 mg/dl to measured blood sugars of 140 mg/dl. After 2 months, the patient indicated average blood sugar levels of 80-140 mg/dl and weight loss to 272 lbs.

[6] = tested on: patient with elevated blood sugars; assay: Case Study D: topiramate with Amaryl (glimepiride) in a patient with elevated blood sugars; type: in vivo, human
Method: The ability of the compounds of formula I administered in combination with an anti-diabetic agent to treat Type II diabetes mellitus and Syndrome X is based on the following case studies. The patient was a person, with a history of elevated blood sugars and a weight of 188 lbs. At the time of initial treatment, patient's blood sugar was 426 mg/dl. Patient was started on topiramate, titrated to 100 mg once a day. The patient was also prescribed […] (glimepiride). After 3 months, patient's blood sugar averaged in the upper 100s, lab sugars measured at 138 mg/dl, cholesterol at 278 mg/dl, triglycerides at 212 mg/dl and HgbA1C at 6.7%. […] Patient weighed 160 lbs. Patient was able to stop taking the […] due to improved sugar control. Due to concerns about weight loss, topiramate was decreased to 100 mg/day. After 21 months, patient's weight was 170 lbs, blood sugars were reported doing well. Lab measured glucose was 115 mg/dl, cholesterol was measured at 236 mg/dl, triglycerides at 106 mg/dl and HgbA1C at 5.7%.

[7] = tested on: simple and complex partial seizures and secondarily generalized seizures; settings: adjunctive therapy or monotherapy; cited from earlier work
[8] = after 3 months, topiramate 100 mg once a day with Amaryl
[9] = after 3 months, topiramate 100 mg once a day with Amaryl, initial 426 mg/dl
[10] = after 21 months, topiramate 100 mg/day, Amaryl stopped
[11] = after one year, topiramate increased to 200 mg/day

In the case of `CC1(C)O[C@@H]2[C@@H](CO[C@@]3(COS(N)(=O)=O)OC(C)(C)O[C@@H]23)O1` [topiramate, 2,3:4,5-bis-O-(1-methylethylidene)-β-D-fructopyranose sulfamate], the seizure block (seizures [1]) is given as “effectively block seizures”, the “patient's weight” value (patient with diabetes; after 15 months, topiramate 300 mg/day with DiaBeta and Rezulin, prior 201 lbs) is given as 190 lbs and the blood sugars (patient with diabetes; after 15 months, topiramate 300 mg/day, DiaBeta 10 mg twice a day, Rezulin 200 mg once a day) is given as “controlled”. The “blood sugars (patient indicated)” value (patient with diabetes; topiramate 75 mg b.i.d (150 mg/day) with Glucophage, DiaBeta, Rezulin, prior blood sugar 309 mg/dl) was “doing better”, the “need for Glucophage (sugar control)” value (patient with diabetes; topiramate 150 mg b.i.d (300 mg/day) with DiaBeta and Rezulin) was “able to stop Glucophage” and the seizure block (seizures [2]) was “effectively block seizures”. The “blood sugar (patient indicated)” value ([3]; after 2 months, topiramate 75 mg a day with insulin (70/30), using the insulin less often) was “improved significantly”, the fasting glucose ([3]; after 16 months, with insulin (70/30), glucose at start 166 mg/dl) was 89 mg/dL and the “home measured blood sugars” value ([3]; after 18 months, with insulin (70/30), previously 150 to 160 mg/dl) was “less than 120 mg/dl”. For the same compound, the “Hbg A1C” value ([3]; after one year, topiramate 200 mg b.i.d. with insulin (70/30)) was 6.94%, the “patient's weight” value ([3]; after one year, topiramate 200 mg b.i.d. with insulin (70/30), start 236 lbs) was 225 lbs and the “status of markers of diabetes mellitus (blood glucose, glycosylated hemoglobin, triglyceride levels)” value [4] was “consistently improved”. For the same compound, the “home measured blood sugars” value ([5]; after 1 month, topiramate 50 mg/day with Glucotrol 40 mg/day, baseline 300 mg/dl) was 140 mg/dL, the “average blood sugar levels” value ([5]; after 2 months, topiramate 50 mg/day with Glucotrol 40 mg/day) was 80 to 140 mg/dL and the weight ([5]; after 2 months, topiramate 50 mg/day with Glucotrol, start 293 lbs) was 272 lbs. The HgbA1C [6, 8] was 6.7%, the cholesterol [6, 8] was 278 mg/dL and the triglycerides [6, 8] was 212 mg/dL. For the same compound, the blood sugar averaged [6, 9] was “upper 100s”, the lab sugars [6, 9] was 138 mg/dL and the HgbA1C [6, 10] was 5.7%. For the same compound, the “blood sugars (reported)” value [6, 10] was “doing well”, the cholesterol [6, 10] was 236 mg/dL and the lab measured glucose [6, 10] was 115 mg/dL. For the same compound, the “patient's weight” value [6, 10] was 170 lbs, the triglycerides [6, 10] was 106 mg/dL and the “need for Amaryl (sugar control)” value ([6]; after one year, topiramate 200 mg/day) was “able to stop taking the Amaryl”. For the same compound, the patient weight ([6]; after one year, topiramate 200 mg/day, start 188 lbs) was 160 lbs, the cholesterol [6, 11] was 200 mg/dL and the “lab measured blood sugars” value [6, 11] was 141 mg/dL. The triglycerides [6, 11] was 500 mg/dL and the “efficacy in treating simple and complex partial seizures and secondarily generalized seizures” value [7] was “effective”.

Reference: patent publication US20040157785A1, “Combination therapy comprising anti-diabetic and anticonvulsant agents” (priority 2000, published 2004)
